What was measured:
[1] = system: giant foxtail; test: Test B pre-/postemergence herbicide test; type: in vivo, Setaria faberi; details: for Plant response rating, Foxtail, Giant: preemergence; for Foxtail, Giant plant response rating: postemergence, visual rating, scale 0 (no effect) to 100 (complete control)
In short: (§1)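 Herbicidal effect was judged by eye on a 0–100 scale after plants stood 13 to 15 days in the greenhouse following pre- or postemergence treatment with surfactant-containing formulations.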

[2] = system: barnyardgrass; test: Test C flooded paddy test; type: in vivo, Echinochloa crus-galli
In short: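 Visual rating, 0 (no effect) to 100 (complete control), vs. controls at 12–14 d in greenhouse. Postemergence: 1–4-leaf plants, 2–18 cm. Paddy: flooded, barnyardgrass at 2-leaf stage.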

[3] = system: cocklebur; test: Test B pre-/postemergence herbicide test; type: in vivo, Xanthium strumarium; details: for Plant response rating, Cocklebur: preemergence; for Cocklebur plant response rating: postemergence, visual rating, scale 0 (no effect) to 100 (complete control)
In short: (§2)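 Response was scored visually 13 to 15 days after treatment against untreated greenhouse controls, 0 meaning no effect and 100 complete control. Formulations (solvent mixture plus surfactant) went onto soil after planting, onto foliage of 1- to 4-leaf plants, and onto 2-leaf plants in a flooded paddy set including rice and barnyardgrass.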

[4] = system: lambsquarters; test: Test B pre-/postemergence herbicide test; type: in vivo, Chenopodium album; details: for Plant response rating, Lambsquarters: preemergence; for Lambsquarters plant response rating: postemergence, visual rating, scale 0 (no effect) to 100 (complete control)
In short: as §1

[5] = system: velvetleaf; test: Test B pre-/postemergence herbicide test; type: in vivo, Abutilon theophrasti; details: for Plant response rating, Velvetleaf: preemergence; for Velvetleaf plant response rating: postemergence, visual rating, scale 0 (no effect) to 100 (complete control)
In short: as §1

[6] = system: morningglory; test: Test B pre-/postemergence herbicide test; type: in vivo, Ipomoea coccinea; details: for Plant response rating, Morningglory: preemergence; for Morningglory plant response rating: postemergence, visual rating, scale 0 (no effect) to 100 (complete control)
In short: as §2

[7] = system: pigweed; test: Test B pre-/postemergence herbicide test; type: in vivo, Amaranthus retroflexus; details: for Plant response rating, Pigweed: preemergence; for Pigweed plant response rating: postemergence, visual rating, scale 0 (no effect) to 100 (complete control)
In short: as §1

[8] = system: ducksalad; test: Test C flooded paddy test; type: in vivo, Heteranthera limosa
[9] = system: ducksalad; test: Test B flooded paddy test; type: in vivo, Heteranthera limosa; details: 1000 g ai/ha, visual rating, scale 0 to 100 (0 no effect, 100 complete control), 13 to 15 days
In short: (§3)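 Visual control ratings, 0–100 versus untreated controls, taken after 13 to 15 days in the greenhouse. Blackgrass received a postemergence spray at the 1- to 4-leaf stage (2–18 cm); ducksalad, umbrella sedge and barnyardgrass were flooded-paddy treated at 2 leaves.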

[10] = system: barnyardgrass; test: Test B flooded paddy test; type: in vivo, Echinochloa crus-galli; details: 1000 g ai/ha, visual rating, scale 0 to 100 (0 no effect, 100 complete control), 13 to 15 days
In short: as §3

[11] = system: barnyardgrass; test: Test B pre-/postemergence herbicide test; type: in vivo, Echinochloa crus-galli; details: for Plant response rating, Barnyardgrass: preemergence; for Barnyardgrass plant response rating: postemergence, visual rating, scale 0 (no effect) to 100 (complete control)
In short: as §2

[12] = system: smallflower umbrella sedge; test: Test C flooded paddy test; type: in vivo, Cyperus difformis
[13] = system: rice; test: Test C flooded paddy test; type: in vivo, Oryza sativa
In short: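 Injury scored visually against controls on a 0 (no effect) to 100 (complete control) scale, 12 to 14 days after treatment in greenhouse. Flooded paddy plants treated at 2-leaf stage; postemergence plants at 1- to 4-leaf stage, 2 to 18 cm tall.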

[14] = system: small flower umbrella sedge; test: Test B flooded paddy test; type: in vivo, Cyperus difformis; details: 1000 g ai/ha, visual rating, scale 0 to 100 (0 no effect, 100 complete control), 13 to 15 days
In short: as §3

[15] = system: large crabgrass; test: Test B pre-/postemergence herbicide test; type: in vivo, Digitaria sanguinalis; details: for Plant response rating, Crabgrass, Large: preemergence; for Crabgrass, Large plant response rating: postemergence, visual rating, scale 0 (no effect) to 100 (complete control)
In short: as §1

[16] = system: rice; test: Test B pre-/postemergence herbicide test; type: in vivo, Oryza sativa; details: 500 g ai/ha; visual rating 0-100, 0 no effect, 100 complete control; preemergence
In short: as §1

[17] = system: Surinam grass; test: Test B pre-/postemergence herbicide test; type: in vivo, Urochloa decumbens; details: for Plant response rating, Surinam Grass: preemergence; for Surinam Grass plant response rating: postemergence, visual rating, scale 0 (no effect) to 100 (complete control)
In short: as §1

[18] = system: rice; test: Test B flooded paddy test; type: in vivo, Oryza sativa; details: 1000 g ai/ha, visual rating, scale 0 to 100 (0 no effect, 100 complete control), 13 to 15 days
In short: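 Treated at 2-leaf (paddy) or 1–4-leaf, 2–18 cm (postemergence); greenhouse 13–15 d; visual score vs control, 0 none to 100 complete control; dash = not tested.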

[19] = system: corn; test: Test B pre-/postemergence herbicide test; type: in vivo, Zea mays; details: for Plant response rating, Corn: preemergence; for Corn plant response rating: postemergence, visual rating, scale 0 (no effect) to 100 (complete control)
In short: as §1

[20] = 500 g ai/ha, visual rating 0-100, 0 no effect, 100 complete control
[21] = 125 g ai/ha, 0 to 100 scale, 0 is no effect, 100 is complete control
[22] = 62 g ai/ha, scale 0 to 100 (0 no effect, 100 complete control)
[23] = 250 g ai/ha, scale of 0 to 100, 0 is no effect, 100 is complete control
[24] = 500 g ai/ha, visual rating after 12 to 14 days, scale 0 to 100 (0 no effect, 100 complete control)
[25] = 125 g ai/ha, scale 0 to 100 (0 no effect, 100 complete control)

SMILES: C=CCN(C)C(=O)c1ccnc(NC(=O)c2cc(C(C)(C)C)nn2CC)c1 [Compound 159]
- Plant response rating, Foxtail, Giant [1, 20]: 60
- Foxtail, Giant plant response rating ([1]; 125 g ai/ha): 40
- Foxtail, Giant plant response rating ([1]; 500 g ai/ha): 50
- Plant response rating, Foxtail, Giant [1, 21]: 50
- Barnyardgrass plant response rating [2, 22]: 30
- Barnyardgrass plant response rating ([2]; 125 g ai/ha, scale of 0 to 100, 0 is no effect, 100 is complete control): 50
- Barnyardgrass plant response rating [2, 23]: 70
- Plant response rating, Barnyardgrass [2, 24]: 80
- Plant response rating, Cocklebur [3, 20]: 100
- Cocklebur plant response rating ([3]; 125 g ai/ha): 80
- Cocklebur plant response rating ([3]; 500 g ai/ha): 80
- Plant response rating, Cocklebur [3, 21]: 90
- Plant response rating, Lambsquarters [4, 20]: 100
- Lambsquarters plant response rating ([4]; 125 g ai/ha): 90
- Lambsquarters plant response rating ([4]; 500 g ai/ha): 90
- Plant response rating, Lambsquarters [4, 21]: 100
- Plant response rating, Velvetleaf [5, 20]: 90
- Velvetleaf plant response rating ([5]; 125 g ai/ha): 20
- Velvetleaf plant response rating ([5]; 500 g ai/ha): 70
- Plant response rating, Velvetleaf [5, 21]: 80
- Plant response rating, Morningglory [6, 20]: 40
- Morningglory plant response rating ([6]; 125 g ai/ha): 10
- Morningglory plant response rating ([6]; 500 g ai/ha): 10
- Plant response rating, Morningglory [6, 21]: 30
- Plant response rating, Pigweed [7, 20]: 100
- Pigweed plant response rating ([7]; 125 g ai/ha): 80
- Pigweed plant response rating ([7]; 500 g ai/ha): 80
- Plant response rating, Pigweed [7, 21]: 100
- Ducksalad plant response rating [8, 22]: 80
- Ducksalad plant response rating [8, 25]: 90
- Ducksalad plant response rating [8, 23]: 90
- Plant response rating, Ducksalad [8, 24]: 100
- Ducksalad plant response rating [9]: 90
- Barnyardgrass plant response rating [10]: 80
- Plant response rating, Barnyardgrass [11, 20]: 90
- Barnyardgrass plant response rating ([11]; 125 g ai/ha): 0
- Barnyardgrass plant response rating ([11]; 500 g ai/ha): 0
- Plant response rating, Barnyardgrass [11, 21]: 70
- Sedge, Umbrella plant response rating [12, 22]: 10
- Sedge, Umbrella plant response rating [12, 25]: 40
- Sedge, Umbrella plant response rating [12, 23]: 60
- Plant response rating, Sedge, Umbrella [12, 24]: 80
- Rice plant response rating [13, 22]: 60
- Rice plant response rating [13, 25]: 60
- Rice plant response rating [13, 23]: 80
- Plant response rating, Rice [13, 24]: 90
- Sedge, Umbrella plant response rating [14]: 70
- Plant response rating, Crabgrass, Large [15, 20]: 70
- Crabgrass, Large plant response rating ([15]; 125 g ai/ha): 0
- Crabgrass, Large plant response rating ([15]; 500 g ai/ha): 0
- Plant response rating, Crabgrass, Large [15, 21]: 40
- Plant response rating, Rice [16]: 70
- Plant response rating, Surinam Grass [17, 20]: 70
- Surinam Grass plant response rating ([17]; 125 g ai/ha): 0
- Surinam Grass plant response rating ([17]; 500 g ai/ha): 20
- Plant response rating, Surinam Grass [17, 21]: 60
- Rice plant response rating [18]: 60
- Plant response rating, Corn [19, 20]: 0
- Corn plant response rating ([19]; 125 g ai/ha): 0
- Corn plant response rating ([19]; 500 g ai/ha): 0
- Plant response rating, Corn [19, 21]: 0
